Data as given in patent US9439438B2 (priority 2011, dated 2016).

Test system: mice
Details: mouse, in vivo

[Cl][Mn][Cl] [Mn, MnCl2]
resistance to a lethal STx challenge: completely resistant
